The record followed here is ChEMBL document CHEMBL5260848, “Recent advancements in the development of bioactive pyrazoline derivatives” (Eur J Med Chem, 2020).

For assay [1], the system named is Rattus norvegicus. As to the kind of experiment: Antiinflammatory activity in carrageenan induced rat paw edema model relative to indomethacin. It counts as functional.
Assay [2] has as its system MCF7. The assay is described as follows: cells. To be noted: Homo sapiens.
Assay [3] deals with Mus musculus. As to the kind of experiment: Anticonvulsant activity in BALB/c mouse assessed as increase in survival rate at 60 mg/kg, ip by PTZ method relative to control. It counts as functional.
Assay [4] concerns HepG2. The assay is described as follows: Cytotoxicity against human HepG2 cells. It counts as functional, cell-based.
Assay [5] concerns Rhizopus arrhizus. As to the kind of experiment: Antifungal activity against Rhizopus oryzae. It counts as functional.
In assay [6] the test system is Staphylococcus aureus. The assay is described as follows: Antibacterial activity against Staphylococcus aureus. It is filed as functional.
In assay [7] the test system is DU-145. As to the kind of experiment: Cytotoxicity against human DU-145 cells by SRB assay. It is filed as functional.
The target of assay [8] is Tubulin (Homo sapiens) (UniProt P68371+Q9H4B7+P0DPH7+P68366+Q13509+Q71U36+P04350+Q3ZCM7+P07437+P68363+Q9BQE3+Q6PEY2+Q13885+Q9BVA1+Q9BUF5). As to the kind of experiment: Inhibition of tubulin polymerization (unknown origin) by fluorescence assay relative to control. It counts as protein-complex assay. To be noted: concentration not given here.
Assay [9] is filed under the species Mus musculus. The assay is described as follows: Antidepressant activity in mouse assessed as […] by tail suspension test. It is filed as functional.
The species entered for assay [10] is Mus musculus. The assay is described as follows: Antidepressant activity in mouse assessed as […] by forced swimming test. It counts as functional.
The species named for assay [11] is Mus musculus. The assay is described as follows: Antianxiety activity in mouse assessed as increase in number of entries in different arms. It is filed as functional.
Assay [12] deals with Mycolicibacterium smegmatis. As to the kind of experiment: Antimycobacterial activity against Mycobacterium smegmatis. It counts as functional.
For assay [13], the system named is Staphylococcus aureus. As to the kind of experiment: microbe, parasite or virus in culture.
Assay [14] relates to Mycobacterium tuberculosis. The assay is described as follows: Antimycobacterial activity against Mycobacterium tuberculosis. It counts as functional.
Assay [15] concerns Candida albicans. The assay is described as follows: microbe, parasite or virus in culture.
Assay [16] relates to Pseudomonas aeruginosa. As to the kind of experiment: microbe, parasite or virus in culture.
Assay [17] relates to Escherichia coli. The assay is described as follows: microbe, parasite or virus in culture.
The target of assay [18] is Acetylcholinesterase (Homo sapiens, UniProt P22303).
For assay [19], the target named is Carbonic anhydrase 1 (Homo sapiens, UniProt P00915). The assay is described as follows: Inhibition of human CA1 by UV spectrophotometric analysis.
Assay [20] deals with Carbonic anhydrase 2 (Homo sapiens, UniProt P00918). The assay is described as follows: Inhibition of human CA2 by UV spectrophotometric analysis.
For assay [21], the system named is A549. As to the kind of experiment: Cytotoxicity against human A549 cells assessed as reduction in cell viability. It is filed as functional, cell-based.
Assay [22] has as its system Rattus norvegicus. As to the kind of experiment: Antiinflammatory activity in carrageenan induced rat paw edema model assessed inhibition of TNF-alpha level. It counts as functional, organism-based.
In assay [23] the test system is RAW264.7. The assay is described as follows: Antiinflammatory activity in LPS-induced mouse RAW264.7 cells assessed as inhibition of LPS induced NO production. It counts as functional, cell-based.
The subject of assay [24] is RAW264.7. The assay is described as follows: Cytotoxicity against mouse RAW264.7 cells relative to control. It is filed as functional.
Assay [25] concerns Streptococcus pyogenes. As to the kind of experiment: Antibacterial activity against Streptococcus pyogenes assessed as inhibition of microbial growth. It is filed as functional.
For assay [26], the system named is Aspergillus clavatus. The assay is described as follows: Antifungal activity against Aspergillus clavatus. It counts as functional.
The test system of assay [27] is Aspergillus niger. As to the kind of experiment: Antifungal activity against Aspergillus niger. It counts as functional.
Assay [28] has as its system Candida albicans. The assay is described as follows: Antifungal activity against Candida albicans. It is filed as functional.
Assay [29] concerns Staphylococcus aureus. As to the kind of experiment: Antibacterial activity against Staphylococcus aureus assessed as inhibition of microbial growth. It counts as functional.

Values after ≈ are worked out from the molar mass of the structure shown.

Chain of Carbonic anhydrase 1 (P00915 whole entry): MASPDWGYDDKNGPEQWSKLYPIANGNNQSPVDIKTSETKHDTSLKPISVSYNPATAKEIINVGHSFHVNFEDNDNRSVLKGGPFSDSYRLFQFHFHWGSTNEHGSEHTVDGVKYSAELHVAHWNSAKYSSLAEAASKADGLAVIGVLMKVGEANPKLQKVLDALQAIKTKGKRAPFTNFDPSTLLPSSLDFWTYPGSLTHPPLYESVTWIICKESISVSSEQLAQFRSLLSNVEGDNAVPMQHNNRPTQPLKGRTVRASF
Chain of Acetylcholinesterase (P22303 whole entry): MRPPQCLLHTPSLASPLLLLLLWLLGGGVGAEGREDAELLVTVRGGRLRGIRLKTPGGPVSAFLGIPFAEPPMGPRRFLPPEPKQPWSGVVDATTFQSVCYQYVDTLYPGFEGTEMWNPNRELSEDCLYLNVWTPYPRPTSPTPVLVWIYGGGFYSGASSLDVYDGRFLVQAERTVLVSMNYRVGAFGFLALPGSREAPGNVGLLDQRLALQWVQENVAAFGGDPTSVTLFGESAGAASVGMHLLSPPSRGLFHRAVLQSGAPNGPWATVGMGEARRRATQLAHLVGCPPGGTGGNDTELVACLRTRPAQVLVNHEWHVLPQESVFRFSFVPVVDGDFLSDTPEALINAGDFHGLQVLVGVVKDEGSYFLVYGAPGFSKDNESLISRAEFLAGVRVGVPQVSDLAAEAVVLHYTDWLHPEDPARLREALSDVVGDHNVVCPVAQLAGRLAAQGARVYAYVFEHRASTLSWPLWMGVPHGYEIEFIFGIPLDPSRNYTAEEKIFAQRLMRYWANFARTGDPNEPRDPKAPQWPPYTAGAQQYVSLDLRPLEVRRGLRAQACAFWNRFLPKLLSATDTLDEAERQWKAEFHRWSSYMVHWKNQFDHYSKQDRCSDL

The compound `Cc1ccc(/C=C/C2=NN(C(N)=O)C(c3ccc(C)s3)C2)s1` (configuration not stated) displayed an Activity in assay [1] of 103%.

`CNC(=S)N1N=C(c2nnn(-c3ccc(-n4nnc(C5=NN(C(=S)NC)C(c6ccccc6)C5)c4C)cc3)c2C)CC1c1ccccc1` (configuration not stated) returned an IC50 in assay [2] of 32.3 mg/L (≈ 47.8 µM).

As to `O=C(Nc1ccc(Cl)cc1)N1N=C(c2ccc(Br)s2)CC1c1c(Cl)cccc1Cl` (configuration not stated), the survival at 60 mg/kg in assay [3] is 95%.

Consider `O=C(Nc1ccc(Cl)cc1)N1N=C(c2ccc(Cl)s2)CC1c1c(Cl)cccc1Cl` (configuration not stated), for which the survival at 60 mg/kg in assay [3] was found to be 100%.

In [4], `CN(C)c1ccc(C2CC(c3c4ccccc4cc4ccccc34)=NN2c2nc(-c3ccc(F)cc3)c(C#N)c(=O)[nH]2)cc1` (configuration not stated) had an IC50 of 4.21 mg/L (≈ 7.28 µM).

The compound `COc1ccc(N2N=C(/C=C/c3ccc(C)o3)CC2c2ccc(C)o2)cc1` (configuration not stated) displayed an Activity in assay [1] of 104%.

Regarding `COc1ccc(C2CC(c3cc4ccccc4oc3=O)=NN2c2ccccc2)cc1OC` (configuration not stated), the MIC in assay [5] and in assay [6] was 12.5 mg/L (≈ 29.3 µM) in each case.

Consider `COc1ccc(/C=C/C(=O)c2cc(OC)c(OC)c(OC)c2)cc1OCc1cn(Cc2ccc(F)cc2)nn1`, for which the GI50 in assay [7] is 1.3 µM. In assay [8], the inhibition is 51%.

Regarding `COc1ccc(C2CC(c3ccc(O)cc3)=NN2)cc1OC` (configuration not stated), the Time in [9] and in assay [10] was 21.17 s in each case. For the same compound, the Activity in assay [11] is given as 15.5.

`Clc1ccc(-n2cc(C3CC(c4ccc(-c5ccccc5)cc4)=NN3)c(-c3cccs3)n2)cc1` (configuration not stated): the MIC was determined as 7.8 mg/L (≈ 16.2 µM) in assay [12], 1.56 mg/L (≈ 3.24 µM) in assay [13], 1.56 mg/L (≈ 3.24 µM) in assay [14] and 1.56 mg/L (≈ 3.24 µM) in assay [15].

Turning to `COc1ccc(-c2nn(-c3ccc(Cl)cc3)cc2C2CC(c3ccc(-c4ccccc4)cc3)=NN2)cc1` (configuration not stated), the MIC in assay [12], in assay [13] and in [15] was 15.6 mg/L (≈ 30.9 µM) in each case.

For `O=C(c1ccncc1)N1N=C(c2ccc(Cl)cc2)CC1c1cc2ccccc2nc1Cl` (configuration not stated), the MIC in assay [16] and in assay [17] was 12.5 mg/L (≈ 27.9 µM) in each case.

Take `COc1ccc(C2CC(c3ccccc3)=NN2c2ccc(S(N)(=O)=O)cc2)cc1OC` (configuration not stated): the Ki in assay [18] turned out to be 0.0377 µM; in assay [19], 0.0279 µM; in assay [20], 0.0274 µM.

For `COc1cc(C2CC(c3ccc(Br)cc3)=NN2C(N)=S)cc(Br)c1O` (configuration not stated), the IC50 in assay [21] was 51 µM.

With `Cc1ccc(/C=C/C2=NN(c3ccccc3)C(c3ccc(C)s3)C2)s1` (configuration not stated), in [22], the IC50 came to 0.0017 µM.

Turning to `C[C@]12CC[C@H]3[C@@H](CC=C4C[C@@H](O)CC[C@@]43C)[C@@H]1CC[C@@H]2C1=NN(C(N)=S)C(c2ccccc2Cl)C1` (some centres not stated), in [23], the IC50 came out at 0.86 µM. For the same compound, the Activity in [24] was above 90%.

For the compound `COc1ccc(C2CC(c3ccc(Cl)cc3)=NN2c2ccc(S(N)(=O)=O)cc2)cc1OC` (configuration not stated), the Ki in assay [18] came out at 0.0377 µM; in assay [19], 0.0279 µM; in assay [20], 0.0274 µM.

On to `O=C(c1ccncc1)N1N=C(c2ccc([N+](=O)[O-])cc2)CC1c1cc2ccccc2nc1Cl` (configuration not stated), for which the MIC in assay [25] turned out to be 12.5 mg/L; in assay [26] it was 12.5 mg/L (≈ 27.3 µM); in assay [27] it was 12.5 mg/L (≈ 27.3 µM); in [28], 12.5 mg/L (≈ 27.3 µM); in assay [29], 12.5 mg/L.
